Source: patent publication US9730446B2, “Herbicidal compositions comprising 4-amino-3-chloro-6-(4-chloro-2-fluoro-3-methoxyphenyl)pyridine-2-carboxylic acid or a derivative thereof and propyzamide” (Dow AgroSciences LLC, priority 2013, dated 2017)

Legend:
Type in all cases: in vivo
[1] = test system: ABUTH Abutilon theophrasti Medik. (velvetleaf); test: Postemergent herbicidal activity, greenhouse; settings: foliar, 14 d
Procedure: (§1) Evaluation of Postemergent Herbicidal Activity. Seeds or nutlets of the desired test plant species were planted in Sun Gro Metro-Mix® 360 planting mixture, which typically has a pH of 6.0 to 6.8 and an organic matter content of about 30 percent, in plastic pots with a surface area of 64 square centimeters (cm^2). […] The plants were grown for 7-21 days (d) in a greenhouse with an approximate 15 hour (h) photoperiod which was maintained at about 23-29° C. during the day and 22-28° C. during the night. Nutrients and water were added on a regular basis and supplemental lighting was provided with overhead metal halide 1000-Watt lamps as necessary. The plants were employed for testing when they reached the first or second true leaf stage.
(§2) A weighed amount, determined by the highest rate to be tested, of each test compound was placed in a 25 milliliter (mL) glass vial and was dissolved in 4 mL of a 97:3 volume per volume (v/v) mixture of acetone and dimethyl sulfoxide (DMSO) to obtain concentrated stock solutions. […] The concentrated stock solutions obtained were diluted with 20 mL of an aqueous mixture containing acetone, water, isopropyl alcohol, DMSO, Atplus 411F crop oil concentrate, and Triton® X-155 surfactant in a 48.5:39:10:1.5:1.0:0.02 v/v ratio to obtain spray solutions containing the highest application rates. Additional application rates were obtained by serial dilution of 12 mL of the high rate solution into a solution containing 2 mL of a 97:3 v/v mixture of acetone and DMSO and 10 mL of an aqueous mixture containing acetone, water, isopropyl alcohol, DMSO, Atplus 411F crop oil concentrate, and Triton X-155 surfactant in a 48.5:39:10:1.5:1.0:0.02 v/v ratio to obtain 1/2×, 1/4×, 1/8× and 1/16× rates of the high rate. Compound requirements are based upon a 12 mL application volume at a rate of 187 liters per hectare (L/ha). Formulated compounds were applied to the plant material with an overhead Mandel track sprayer equipped with 8002E nozzles calibrated to deliver 187 L/ha over an application area of 0.503 square meters (m^2) at a spray height of 18 inches (43 cm) above the average plant canopy height. Control plants were sprayed in the same manner with the solvent blank.
(§3) Treatments consisted of the methyl ester of 4-amino-3-chloro-6-(4-chloro-2-fluoro-3-methoxyphenyl)pyridine-2-carboxylic acid (Cmpd 1) as technical grade material and propyzamide (Kerb 50 W) alone and in combination.
(§4) The treated plants and control plants were placed in a greenhouse as described above and watered by subirrigation to prevent wash-off of the test compounds. After 14 d, the condition of the test plants as compared with that of the untreated plants was determined visually and scored on a scale of 0 to 100 percent where 0 corresponds to no injury and 100 corresponds to complete kill.
(§5) Colby's equation was used to determine the herbicidal effects expected from the mixtures (Colby, S. R. Calculation of the synergistic and antagonistic response of herbicide combinations. Weeds 1967, 15, 20-22). More specifically, the following equation was used to calculate the expected activity of mixtures containing two active ingredients, A and B: Expected=A+B−(A×B/100) A=observed efficacy of active ingredient A at the same concentration as used in the mixture; B=observed efficacy of active ingredient B at the same concentration as used in the mixture.

[2] = test system: AMARE Amaranthus retroflexus L. (redroot pigweed); test: Postemergent herbicidal activity, greenhouse; settings: foliar, 14 d
Procedure: as §1, §2, §3, §4, §5

[3] = test system: BRSNW Brassica napus (winter oilseed rape); test: Postemergent herbicidal activity, greenhouse; settings: foliar, 14 d
Procedure: as §1, §2, §3, §4, §5

[4] = test system: CHEAL Chenopodium album L. (common lambsquarters); test: Postemergent herbicidal activity, greenhouse; settings: foliar, 14 d
Procedure: as §1, §2, §3, §4, §5

[5] = test system: CIRAR Cirsium arvense (L.) Scop. (Canada thistle); test: Postemergent herbicidal activity, greenhouse; settings: foliar, 14 d
Procedure: as §1, §2, §3, §4, §5

[6] = test system: EPHHL Euphorbia heterophylla L. (wild poinsettia); test: Postemergent herbicidal activity, greenhouse; settings: foliar, 14 d
Procedure: as §1, §2, §3, §4, §5

[7] = test system: GLXMA Glycine max (volunteer soybean); test: Postemergent herbicidal activity, greenhouse; settings: foliar, 14 d
Procedure: as §1, §2, §3, §4, §5

[8] = test system: IPOHE Ipomoea hederacea (L.) Jacq. (ivyleaf morningglory); test: Postemergent herbicidal activity, greenhouse; settings: foliar, 14 d
Procedure: as §1, §2, §3, §4, §5

[9] = test system: POLCO Polygonum convolvulus L. (wild buckwheat); test: Postemergent herbicidal activity, greenhouse; settings: foliar, 14 d
Procedure: as §1, §2, §3, §4, §5

[10] = test system: SETFA Setaria faberi Herrm. (giant foxtail); test: Postemergent herbicidal activity, greenhouse; settings: foliar, 14 d
Procedure: as §1, §2, §3, §4, §5

[11] = test system: STEME Stellaria media (L.) Vill. (common chickweed); test: Postemergent herbicidal activity, greenhouse; settings: foliar, 14 d
Procedure: as §1, §2, §3, §4, §5

[12] = test system: VIOTR Viola tricolor L. (wild violet); test: Postemergent herbicidal activity, greenhouse; settings: foliar, 14 d
Procedure: as §1, §2, §3, §4, §5

[13] = test system: GERSS Geranium sp. (cranesbill); test: Field trial, visual weed control in winter oilseed rape
Procedure: (§6) Multiple small plot research experiments were conducted to evaluate efficacy and tolerance of winter oilseed rape to compositions described herein. Typical small plots (2-4×4-10 meters (m)) were used in growers' fields under natural conditions with normal commercial cultural practices. Backpack sprayers were used to apply all treatments based on unit area. The methyl ester of formula (I) and propyzamide were tested alone and in combination at varying rates. […] Crop stage was at Growth Stage 39-50. Visual crop injury ratings were collected 32, 49, and 74 days after treatment. […] The reported values are means. […] The following abbreviations are used in Tables 2-4: • GERSS Geranium sp. (cranesbill) • POAAN Poa annua (annual bluegrass) • VERSS Veronica sp.

[14] = test system: POAAN Poa annua (annual bluegrass); test: as above
Procedure: as §6

[15] = test system: VERSS Veronica sp. (speedwell); test: as above
Procedure: as §6

winter oilseed rape = test: Field trial, visual crop injury ratings; settings: varying rates, crop Growth Stage 39-50, 32, 49, and 74 days after treatment, in each case
Procedure: Multiple small plot research experiments were conducted to evaluate efficacy and tolerance of winter oilseed rape to compositions described herein. Typical small plots (2-4×4-10 meters (m)) were used in growers' fields under natural conditions with normal commercial cultural practices. Backpack sprayers were used to apply all treatments based on unit area. The methyl ester of formula (I) and propyzamide were tested alone and in combination at varying rates. Application water volume was 150 L/ha. Crop stage was at Growth Stage 39-50. Visual crop injury ratings were collected 32, 49, and 74 days after treatment. […] The reported values are means.

[16] = Propyzamide 250 g ai/ha, 32 DAAA
[17] = Propyzamide 250 g ai/ha, 58 DAAA
[18] = Propyzamide 250 g ai/ha, 80 DAAA
[19] = Propyzamide 500 g ai/ha, 32 DAAA
[20] = Propyzamide 500 g ai/ha, 58 DAAA
[21] = Propyzamide 500 g ai/ha, 80 DAAA
[22] = Propyzamide 750 g ai/ha, 32 DAAA
[23] = Propyzamide 750 g ai/ha, 58 DAAA
[24] = Propyzamide 750 g ai/ha, 80 DAAA

Compound: C#CC(C)(C)NC(=O)c1cc(Cl)cc(Cl)c1 [Propyzamide, 3,5-dichloro-N-(1,1-dimethylpropynyl)benzamide]
- % control rated visually, ob (observed) ([1]; Propyzamide 285 g ai/ha): 5%
- % control rated visually, ob (observed) ([1]; Propyzamide 570 g ai/ha): 0%
- % control rated visually, ob (observed) ([2]; Propyzamide 285 g ai/ha): 0%
- % control rated visually, ob (observed) ([2]; Propyzamide 570 g ai/ha): 10%
- % control rated visually, ob (observed) ([3]; Propyzamide 285 g ai/ha): 5%
- % control rated visually, ob (observed) ([3]; Propyzamide 570 g ai/ha): 20%
- % control rated visually, ob (observed) ([4]; Propyzamide 285 g ai/ha): 0%
- % control rated visually, ob (observed) ([4]; Propyzamide 570 g ai/ha): 0%
- % control rated visually, ob (observed) ([5]; Propyzamide 285 g ai/ha): 0%
- % control rated visually, ob (observed) ([5]; Propyzamide 570 g ai/ha): 0%
- % control rated visually, ob (observed) ([6]; Propyzamide 285 g ai/ha): 0%
- % control rated visually, ob (observed) ([6]; Propyzamide 570 g ai/ha): 0%
- % control rated visually, ob (observed) ([7]; Propyzamide 285 g ai/ha): 10%
- % control rated visually, ob (observed) ([7]; Propyzamide 570 g ai/ha): 15%
- % control rated visually, ob (observed) ([8]; Propyzamide 285 g ai/ha): 10%
- % control rated visually, ob (observed) ([8]; Propyzamide 570 g ai/ha): 17%
- % control rated visually, ob (observed) ([9]; Propyzamide 285 g ai/ha): 5%
- % control rated visually, ob (observed) ([9]; Propyzamide 570 g ai/ha): 15%
- % control rated visually, ob (observed) ([10]; Propyzamide 285 g ai/ha): 0%
- % control rated visually, ob (observed) ([10]; Propyzamide 570 g ai/ha): 0%
- % control rated visually, ob (observed) ([11]; Propyzamide 285 g ai/ha): 7%
- % control rated visually, ob (observed) ([11]; Propyzamide 570 g ai/ha): 75%
- % control rated visually, ob (observed) ([12]; Propyzamide 285 g ai/ha): 0%
- % control rated visually, ob (observed) ([12]; Propyzamide 570 g ai/ha): 0%
- % control rated visually, ob (observed) [13, 16]: 5.0%
- % control rated visually, ob (observed) [13, 17]: 17.5%
- % control rated visually, ob (observed) [13, 18]: 22.5%
- % control rated visually, ob (observed) [13, 19]: 20.0%
- % control rated visually, ob (observed) [13, 20]: 35.0%
- % control rated visually, ob (observed) [13, 21]: 28.8%
- % control rated visually, ob (observed) [13, 22]: 18.8%
- % control rated visually, ob (observed) [13, 23]: 25.0%
- % control rated visually, ob (observed) [13, 24]: 33.8%
- % control rated visually, ob (observed) [14, 16]: 12.5%
- % control rated visually, ob (observed) [14, 17]: 12.5%
- % control rated visually, ob (observed) [14, 18]: 45.0%
- % control rated visually, ob (observed) [14, 19]: 15.0%
- % control rated visually, ob (observed) [14, 20]: 67.5%
- % control rated visually, ob (observed) [14, 21]: 95.0%
- % control rated visually, ob (observed) [14, 22]: 37.5%
- % control rated visually, ob (observed) [14, 23]: 92.5%
- % control rated visually, ob (observed) [14, 24]: 98.3%
- % control rated visually, ob (observed) [15, 16]: 43.8%
- % control rated visually, ob (observed) [15, 18]: 100.0%
- % control rated visually, ob (observed) [15, 19]: 60.0%
- % control rated visually, ob (observed) [15, 21]: 100.0%
- % control rated visually, ob (observed) [15, 22]: 54.3%
- % control rated visually, ob (observed) [15, 24]: 100.0%
- Visual crop injury rating (winter oilseed rape): 0 % injury
